Assay results reported in patent US20090221581A1, “Methods of treating pain” (priority 2005, published 2009).

What was measured:
CDK2/CycA = molecular target: T1, CDK2/CycA (Homo sapiens, UniProt P24941); assay: In vitro kinase inhibition assay, CDK2/CycA; format: biochemical
T1 construct: host or cells: Sf9 insect cells, baculovirus
Description: (§1) In vitro kinase inhibition assays may be performed according to the following protocol:
(§2) Compounds are used as 1×10^−02 M stock solutions in 100% DMSO, 100 μl each in column 2 of three 96-well V-shaped microtiter plates (in the following, said plates are referred to as “master plates”).
(§3) Subsequently, the 1×10^−02 M stock solutions in column 2 of the master plates are subjected to a serial, semi-logarithmic dilution using 100% DMSO as a solvent, resulting in 10 different concentrations, the dilution endpoint being 3×10^−07 M/100% DMSO in column 12. Column 1 and 7 are filled with 100% DMSO as controls. […]
(§4) For the determination of inhibitory profiles, the following protein kinases were used: CDK2/CycA, CDK4/CycD1, CDK6/CycD1 and CDK9/CycT. […] The purity of each kinase is determined by SDS-PAGE/silver staining and the identity of each kinase is verified by western blot analysis with kinase specific antibodies or by mass spectroscopy. […]
(§5) Reaction mixtures are incubated at 30° C. for 80 minutes. […] Incorporation of ^33P is determined with a microplate scintillation counter (Microbeta, Wallac). […]
(§6) The median value of the counts in column 1 (n=8) of each assay plate is defined as “low control”. This value reflects unspecific binding of radioactivity to the plate in the absence of a protein kinase but in the presence of the substrate. […]

CDK9/CycT = molecular target: T2, CDK9/CycT (Homo sapiens, UniProt P50750); assay: In vitro kinase inhibition assay, CDK9/CycT; format: biochemical
T2 construct: host or cells: Sf9 insect cells, baculovirus
Description: as §1, §2, §3, §4, §5, §6

[1] = system: TNFα expression in microglial cell line (EOC20); assay: TNFα expression in microglial cells, Real-Time PCR; format: cell-based, human
Description: In order to validate the hypothesis that TNFα stimulation is regulated by an autocrine loop (i.e., TNFα induces expression of TNFα; see FIG. 2), a microglial cell line (EOC20) […] was stimulated in vitro by addition of TNFα (20 ng/ml).
1 hour prior to addition of TNFα, stimulated or unstimulated cells, respectively, were treated with DMSO (vehicle control), or 0.5 μM and 0.05 μM, respectively, of compound A. Cells were harvested 48 h after addition of TNFα. RNA was isolated from the samples and the amount of amplicon of TNFα (and of other cytokines) and of several housekeeping genes was measured by light cycler-based Real-Time PCR.

CDK6/CycD1 = molecular target: T3, CDK6/CycD1 (Homo sapiens, UniProt Q00534); assay: In vitro kinase inhibition assay, CDK6/CycD1; format: biochemical
T3 construct: host or cells: Sf9 insect cells, baculovirus
Description: as §1, §2, §3, §4, §5, §6

CDK4/CycD1 = molecular target: T4, CDK4/CycD1 (Homo sapiens, UniProt P11802); assay: In vitro kinase inhibition assay, CDK4/CycD1; format: biochemical
T4 construct: host or cells: Sf9 insect cells, baculovirus
Description: as §1, §2, §3, §4, §5, §6

T2 sequence (P50750 whole entry): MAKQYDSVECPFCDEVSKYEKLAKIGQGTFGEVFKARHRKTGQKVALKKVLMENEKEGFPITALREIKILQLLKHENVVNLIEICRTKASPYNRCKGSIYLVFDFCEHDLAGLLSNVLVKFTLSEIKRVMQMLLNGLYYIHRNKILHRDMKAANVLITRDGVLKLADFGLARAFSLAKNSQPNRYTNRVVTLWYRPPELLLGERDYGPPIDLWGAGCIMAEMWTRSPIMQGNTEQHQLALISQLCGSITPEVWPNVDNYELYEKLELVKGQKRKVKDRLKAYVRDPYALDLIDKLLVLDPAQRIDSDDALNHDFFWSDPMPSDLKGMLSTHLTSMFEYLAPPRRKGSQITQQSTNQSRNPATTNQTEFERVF
T2 sequence (O60563 whole entry partner): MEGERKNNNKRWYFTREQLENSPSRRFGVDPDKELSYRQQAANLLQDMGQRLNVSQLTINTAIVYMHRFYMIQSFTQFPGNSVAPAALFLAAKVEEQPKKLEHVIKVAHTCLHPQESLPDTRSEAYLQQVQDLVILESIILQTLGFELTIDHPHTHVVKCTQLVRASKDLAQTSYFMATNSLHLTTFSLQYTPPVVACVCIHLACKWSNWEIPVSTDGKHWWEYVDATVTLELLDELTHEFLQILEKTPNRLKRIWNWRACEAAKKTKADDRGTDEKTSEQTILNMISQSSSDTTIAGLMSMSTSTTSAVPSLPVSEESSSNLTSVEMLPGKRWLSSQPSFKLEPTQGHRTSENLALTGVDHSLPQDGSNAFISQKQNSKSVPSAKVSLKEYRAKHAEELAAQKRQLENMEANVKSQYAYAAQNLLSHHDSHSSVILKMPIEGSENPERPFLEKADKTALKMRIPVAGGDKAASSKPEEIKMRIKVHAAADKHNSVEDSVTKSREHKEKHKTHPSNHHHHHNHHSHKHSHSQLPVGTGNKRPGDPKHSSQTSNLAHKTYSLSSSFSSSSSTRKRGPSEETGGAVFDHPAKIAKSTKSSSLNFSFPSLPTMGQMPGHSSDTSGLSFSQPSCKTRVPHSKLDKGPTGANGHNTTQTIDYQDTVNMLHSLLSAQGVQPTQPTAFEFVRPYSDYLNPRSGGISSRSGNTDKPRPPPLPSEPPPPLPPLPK
T4 sequence (P11802 whole entry): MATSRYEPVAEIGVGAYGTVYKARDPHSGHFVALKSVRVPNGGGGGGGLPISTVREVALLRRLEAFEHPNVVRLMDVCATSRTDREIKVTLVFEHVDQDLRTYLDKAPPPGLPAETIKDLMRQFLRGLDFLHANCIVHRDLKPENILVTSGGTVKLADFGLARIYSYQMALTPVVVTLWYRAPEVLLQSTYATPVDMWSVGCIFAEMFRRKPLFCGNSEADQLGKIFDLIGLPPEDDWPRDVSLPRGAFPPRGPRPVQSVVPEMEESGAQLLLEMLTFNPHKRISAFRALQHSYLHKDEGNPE
T4 sequence (P24385 whole entry partner): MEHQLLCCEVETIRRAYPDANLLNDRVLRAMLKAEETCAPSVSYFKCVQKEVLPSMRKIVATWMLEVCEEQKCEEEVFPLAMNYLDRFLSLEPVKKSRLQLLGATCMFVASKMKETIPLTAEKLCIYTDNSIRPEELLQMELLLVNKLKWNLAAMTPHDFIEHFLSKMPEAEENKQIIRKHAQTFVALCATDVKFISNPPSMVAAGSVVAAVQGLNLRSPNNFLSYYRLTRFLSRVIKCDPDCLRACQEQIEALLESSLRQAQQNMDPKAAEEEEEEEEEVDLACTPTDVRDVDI
T3 sequence (Q00534 whole entry): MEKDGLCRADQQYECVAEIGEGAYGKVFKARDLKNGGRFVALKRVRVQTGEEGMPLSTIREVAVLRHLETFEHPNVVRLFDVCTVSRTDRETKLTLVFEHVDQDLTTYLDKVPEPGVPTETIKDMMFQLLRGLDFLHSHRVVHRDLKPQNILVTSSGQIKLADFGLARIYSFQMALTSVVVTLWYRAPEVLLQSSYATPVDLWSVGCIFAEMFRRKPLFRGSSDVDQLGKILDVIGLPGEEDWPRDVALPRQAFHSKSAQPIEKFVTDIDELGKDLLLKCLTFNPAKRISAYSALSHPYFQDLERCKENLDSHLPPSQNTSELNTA
T3 sequence (P24385 whole entry partner): as the sequence (P24385 whole entry partner) above

IC50 (CDK2/CycA): 10.1 µM
IC50 (CDK9/CycT; CDK9/CycT): 630 nM
specificity for CDK9 over other CDKs (CDK9/CycT; from IC50 values of Table 1): high specificity for CDK9
IC50 (CDK6/CycD1): 1910 nM
IC50 (CDK4/CycD1): 2790 nM
SMILES: COc1ccccc1-c1cc(Nc2cccc(S(N)(=O)=O)c2)ncn1 [Compound A]
TNFα message in unstimulated cells ([1]; EOC20 cells without TNFα stimulation, 0.5 μM and 0.05 μM compound): reduction of TNFα message
TNFα amplicon in TNFα-stimulated cells ([1]; EOC20 cells, TNFα 20 ng/ml, 0.5 μM and 0.05 μM compound 1 hour prior, harvested 48 h): dose-dependent reduction
